Among the test systems are M14; EKVX; SN12C; TK-10; SK-MEL-28; Malme-3M; SNB-19; OVCAR-8; MDA-MB-435; HT-29; OVCAR-3; Hs-578T; SF-539; HCT-15; HL-60; UACC-62; HCC 2998; OVCAR-5; SK-MEL-2; MDA-N.
Holding throughout (test): growth of human tumour cells (NCI), 48 h

The values that follow come from ChEMBL document CHEMBL1201862, “PubChem BioAssay data set” (2004).

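96-well plates; 48 h exposure; 5 concentrations. Endpoints by linear interpolation between flanking doses. Not reached: highest tested concentration assigned. At the GI50, growth is halved.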 Active and inactive are the calls of the source. Cut-off read from the data, not from the text of the source: active = GI50 up to about 1.1 µM and inactive = higher.

Turning to `[N-]=[N+]=Nc1c(C=O)c(=O)n2c3c(cccc13)CCC2`, the GI50 with M14 is 1.95 µM (inactive); in the test with EKVX it was 11.1 µM (inactive); in the test with SN12C it was 15.4 µM (inactive); in the test on TK-10, 4.74 µM (inactive); in the test with SK-MEL-28 it was 11.5 µM (inactive); with Malme-3M it was 1.84 µM (inactive). The GI50 with SNB-19 is 20 µM (inactive); with OVCAR-8, 3.03 µM (inactive); with MDA-MB-435, 6.89 µM (inactive); in the test with HT-29, 10 µM (inactive); in the test with OVCAR-3 it was 2.28 µM (inactive); with Hs-578T it was 15.3 µM (inactive). In addition, the GI50 in the test on SF-539 is 16.1 µM (inactive); in the test with HCT-15, 3.27 µM; in the test with HL-60 it was 0.608 µM (active); with UACC-62, 12.8 µM (inactive); in the test with HCC 2998 it was 16.9 µM (inactive); in the test on OVCAR-5, 7.24 µM (inactive). Besides, the GI50 in the test on SK-MEL-2 is > 10 µM (inactive); with MDA-N, 5.81 µM (inactive).

With `CCCCOP(C)(=O)C(NC(=O)OCC)(C(F)(F)F)C(F)(F)F` (stereo not given), the GI50 with M14, with EKVX, with SN12C, with TK-10, with SK-MEL-28 and in the test on Malme-3M was > 100 µM (inactive) each time. The GI50 in the test with SNB-19, in the test with OVCAR-8, in the test on MDA-MB-435, in the test with HT-29, in the test with OVCAR-3 and with Hs-578T was > 100 µM (inactive) throughout. In addition, the GI50 with SF-539 was > 100 µM (inactive); in the test with HCT-15, above 100 µM; in the test on HL-60, > 100 µM (inactive); with UACC-62, > 100 µM (inactive); with HCC 2998 it was > 100 µM (inactive); with OVCAR-5, > 100 µM (inactive). The GI50 in the test on SK-MEL-2 and in the test with MDA-N was > 100 µM (inactive) each time.

As to `CCCCCc1cccc(=O)o1`, the GI50 in the test with M14, in the test with EKVX, in the test with SN12C, in the test on TK-10, in the test with SK-MEL-28 and in the test with Malme-3M was > 100 µM (inactive) each time. The GI50 in the test on SNB-19, with OVCAR-8, with MDA-MB-435, with HT-29, in the test on OVCAR-3 and with Hs-578T was > 100 µM (inactive) throughout. Besides, the GI50 with SF-539 was > 100 µM (inactive); in the test on HCT-15, above 100 µM; with HL-60, > 100 µM (inactive); in the test with UACC-62, > 100 µM (inactive); in the test on HCC 2998 it was > 100 µM (inactive); in the test on OVCAR-5 it was > 100 µM (inactive). For the same compound, the GI50 in the test with SK-MEL-2 and in the test with MDA-N was > 100 µM (inactive) throughout.
